Laboratory results from ChEMBL document CHEMBL1201862, “PubChem BioAssay data set” (2004).
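Method: 48-hour compound exposure of cells in 96-well plates, five concentrations, linear interpolation of endpoints. GI50 marks 50% less growth.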 Activity calls are given as the source filed them. No stated cut-off is given here; in the data, active = GI50 up to about 1.1 µM and inactive = higher.

Tests used:
Assay in all cases: NCI-60 cell line screen, 48 h
HOP-62 = tested on: HOP-62
MDA-MB-231 = tested on: MDA-MB-231
COLO 205 = tested on: COLO 205
SK-MEL-28 = tested on: SK-MEL-28
TK-10 = tested on: TK-10
OVCAR-8 = tested on: OVCAR-8
OVCAR-4 = tested on: OVCAR-4
SF-268 = tested on: SF-268
SNB-19 = tested on: SNB-19
786-0 = tested on: 786-0
IGROV-1 = tested on: IGROV-1
T47D = tested on: T47D
SNB-75 = tested on: SNB-75
K562 = tested on: K562
Malme-3M = tested on: Malme-3M
DU-145 = tested on: DU-145
SK-MEL-5 = tested on: SK-MEL-5
HT-29 = tested on: HT-29
RXF 393 = tested on: RXF 393
HCC 2998 = tested on: HCC 2998

Measured: GI50

Cc1ccccc1OC(C)C(=O)NN1C(=O)CC(=O)NC1=S (stereo not given)
inactive: HOP-62 > 100 µM | MDA-MB-231 > 100 µM | COLO 205 > 100 µM | SK-MEL-28 > 100 µM | TK-10 > 100 µM | OVCAR-8 > 100 µM | OVCAR-4 63.2 µM | SF-268 > 100 µM | SNB-19 > 100 µM | 786-0 > 100 µM | IGROV-1 > 100 µM | T47D 23.9 µM | SNB-75 > 100 µM | K562 > 100 µM | Malme-3M > 100 µM | DU-145 > 100 µM | SK-MEL-5 > 100 µM | HT-29 > 100 µM | RXF 393 > 100 µM | HCC 2998 > 100 µM

Cc1cc(N(CCOS(C)(=O)=O)CCOS(C)(=O)=O)ccc1/C=N/c1ccc(-c2csc(-c3ccccc3)n2)c(Cl)c1
inactive: HOP-62 6.05 µM | MDA-MB-231 20.6 µM | COLO 205 1.64 µM | SK-MEL-28 21.6 µM | TK-10 10.5 µM | OVCAR-8 15.9 µM | OVCAR-4 16 µM | SF-268 8.63 µM | SNB-19 4.66 µM | 786-0 2.05 µM | IGROV-1 8.2 µM | T47D 15.4 µM | SNB-75 1.8 µM | K562 6.28 µM | Malme-3M 11.9 µM | DU-145 1.67 µM | SK-MEL-5 7.6 µM | HT-29 9.91 µM | RXF 393 2.12 µM | HCC 2998 2.93 µM
